Reference: US6630124B1, “Combination therapy with VIP antagonist” (Ramot-University Authority for Applied Research and …, priority 1998, dated 2003)
Values after ≈ are worked out from the molar mass of the structure shown. “Also recorded” adds a separate entry of the source. Where two headings read alike, the source gives them in different places.

Key:
[1] = test system: CT-26 murine colon cancer; test: MTS cell proliferation assay, SNH and chemotherapy; type: cell-based; settings: CT-26, SNH and CPT-11 (FIG. 10)
Method: NCI-H727 and LNCaP were grown in RPMI 1640 medium supplemented with 10% heat inactivated FCS, L-glutamine and antibiotics. HT-29 and CT-26 were grown in DMEM medium supplemented with 10% heat-inactivated FCS (fetal calf serum), L-glutamine and antibiotics. The cells were cultured in 5% CO2/95% air at […] and used during their exponential growth phase. Routinely, the cells which are adherent, were split when a subconfluent monolayer was formed. In different experiments, various concentration of FCS were used.
For growth inhibition experiments, subconfluent adherent cells were washed with PBS and treated with trypsin/versene. The cells were pelleted and resuspended in medium to a final concentration of 75,000 cells/mL for NCI-H727. 50,000 cells/mL for LNCaP and HT-29 and 25000 cells/mL for CT-26. […]
On day 4, viable cell number was determined by a modified MTT assay i.e., MTS non-radioactive cell proliferation assay (Promega). Briefly, […] of freshly prepared MTS/PMS solution was added to each individual well and after 1-3 hours of incubation (the optimal time was determined for each cell line) absorbance at 490 nm was measured using a multiscan plate reader. Results were finally expressed as percentage of the control, which was obtained from the samples with no drug treatment. Dose-response curves were plotted using a Sigma-Plot software and statistically analyzed using Student test. […]

[2] = test system: NCI-H727 non-small cell lung cancer (carcinoid); test: MTS cell proliferation assay, SNH and chemotherapy; type: cell-based; settings: for nature of the combined effect with SNH: combination with SNH
Method: NCI-H727 and LNCaP were grown in RPMI 1640 medium supplemented with 10% heat inactivated FCS, L-glutamine and antibiotics. HT-29 and CT-26 were grown in DMEM medium supplemented with 10% heat-inactivated FCS (fetal calf serum), L-glutamine and antibiotics. The cells were cultured in 5% CO2/95% air at […] and used during their exponential growth phase. Routinely, the cells which are adherent, were split when a subconfluent monolayer was formed. In different experiments, various concentration of FCS were used. For growth inhibition experiments, subconfluent adherent cells were washed with PBS and treated with trypsin/versene. The cells were pelleted and resuspended in medium to a final concentration of 75,000 cells/mL for NCI-H727. 50,000 cells/mL for LNCaP and HT-29 and 25000 cells/mL for CT-26. These different concentrations were used in order to avoid confluence in the wells at the end of the experiment and correspond to the different doubling times of the cell lines. On day 0, cells suspensions […] were dispensed using a multi-channel pipet into the individual wells of a 96-well tissue culture plate (Nuncion, Nunc Brand Products). […] Cells were incubated for 24 hours in a humidified atmosphere of 95% air/5% CO2 at 37° C. before treatment. On day 1, the cells were treated with different drugs and schedules and maintained under the same conditions. On day 4, viable cell number was determined by a modified MTT assay i.e., MTS non-radioactive cell proliferation assay (Promega). […] Results were finally expressed as percentage of the control, which was obtained from the samples with no drug treatment. Dose-response curves were plotted using a Sigma-Plot software and statistically analyzed using Student test. To determine the effect of the lipophilic VIP antagonist SNH on cell proliferation, cells plated in 96-well microplates for 24 hours as described, were treated with various concentrations of SNH. The peptide was diluted in PBS and […] of the peptide solution was added to each well for a final concentration of the peptide between 10^−510^−9 M. The solvent was added to the control wells. […] A dose-response curve was obtained at concentrations ranging from 2 μM-10 μM (see, FIG. 2). […] The effects of an 8 hours treatment were slightly less, showing that most of the effect is in the initial hours of exposure and much more dose than time dependent. […] For the experiments with the combinations of VIP antagonists and chemotherapeutic agents, on day 0, the cells were plated for 24 hours in medium supplemented with 5% FCS. On day 1, the peptide was added to the wells followed 1 hour later by the chemotherapeutic agents. […] The chemotherapeutic drugs were tested over 7 concentrations, covering as much as possible of the dose response curve of each individual drug. 24 hours later, the medium was exchanged and the cells incubated under the same conditions for another 48 hours. On day 4 the number of viable cells was determined by MTS assay.

[3] = test system: cell lines derived from colon cancer and prostate cancer; test: MTS colorimetric proliferation assay, VIP antagonist with chemotherapeutic agents (Example I); type: cell-based; settings: combination with stearyl-Nle17-neurotensis 6-11 VIP 7-28
Method: Assays were performed with cell lines derived from colon cancer and prostate cancer. Proliferation was assessed using the MTS colorimetric assay of mitochondrial function for living cells. The VIP antagonist (stearyl-Nle17-neurotensis 6-11 VIP 7-28) was used.

HT-29 human colon cancer = test: MTS cell proliferation assay, SNH and chemotherapy; type: cell-based; settings: HT-29, SNH and CPT-11 (FIG. 11)
Method: NCI-H727 and LNCaP were grown in RPMI 1640 medium supplemented with 10% heat inactivated FCS, L-glutamine and antibiotics. HT-29 and CT-26 were grown in DMEM medium supplemented with 10% heat-inactivated FCS (fetal calf serum), L-glutamine and antibiotics. The cells were cultured in 5% CO2/95% air at […] and used during their exponential growth phase. Routinely, the cells which are adherent, were split when a subconfluent monolayer was formed. In different experiments, various concentration of FCS were used. For growth inhibition experiments, subconfluent adherent cells were washed with PBS and treated with trypsin/versene. The cells were pelleted and resuspended in medium to a final concentration of 75,000 cells/mL for NCI-H727. 50,000 cells/mL for LNCaP and HT-29 and 25000 cells/mL for CT-26. These different concentrations were used in order to avoid confluence in the wells at the end of the experiment and correspond to the different doubling times of the cell lines. […] On day 4, viable cell number was determined by a modified MTT assay i.e., MTS non-radioactive cell proliferation assay (Promega). […] Results were finally expressed as percentage of the control, which was obtained from the samples with no drug treatment. Dose-response curves were plotted using a Sigma-Plot software and statistically analyzed using Student test. […] On day 4 the number of viable cells was determined by MTS assay.

MDA-MB231 xenografts = test: MDA-MB231 breast cancer xenografts in nude mice; type: in vivo, Balb/c nude mice; settings: after 4 weeks; VIPhyb 10 μg/day s.c., Taxol 1.5 mg i.p. once; PBS control 1121 mm^3
Method: To test the proliferative aspects of VIPhybrid analogs in vivo, nude mice bearing breast cancer xenografts were utilized. Female athymic Balb/c nude mice, 4-5 weeks old, were housed in a pathogen-free temperature controlled isolation room and the diet consisted of autoclaved rodent chow and autoclaved water given ad libitum. MDA-MB231 cells (1×10^7) were injected into the right flank of each mouse subcutaneously. […] PBS (100 μl) or VIPhyb analogs (10 μg/day) were injected subcutaneously adjacent to the tumor. Taxol was injected once (1.5 mg i.p.) after 2 weeks. The tumor volume (height×width×depth) was determined twice weekly by calipers and recorded.

[4] = test system: lung (NCI-H157 and NCI-H1299), breast (MCF-7), pancreatic (CAPAN) and prostate (PC-3) cancer cell lines; test: MTT assay, Taxol with or without SNVIPhyb, summary over epithelial cancer cell lines
Source text: The effects of SNVIPhyb were then investigated in the presence of Taxol, which affects microtubules, causing dividing cells to arrest in the mitosis (M) phase of growth.
The effect of SNVIPhyb was investigated on other epithelial cancer cell lines.

[5] = test system: NCI-H727 non-small cell lung cancer (carcinoid); test: MTS cell proliferation assay, SNH and chemotherapy; type: cell-based; settings: 8 μM SNH 2 h, then Taxol 0.003-1 μg/ml 4 h, then fresh medium 66 h
[6] = test system: NCI-H1299 lung cancer cell line; test: MTT assay, Taxol with or without SNVIPhyb; type: cell-based; settings: Homo sapiens
Source text: (§1) The ability of SNVIPhyb to inhibit cancer growth was investigated.

[7] = test system: NCI-H157 lung cancer cell line; test: MTT assay, Taxol with or without SNVIPhyb; type: cell-based; settings: Homo sapiens
Source text: as §1

[8] = test system: CAPAN pancreatic cancer cell line; test: MTT assay, Taxol with or without SNVIPhyb; type: cell-based
Source text: as §1

[9] = test system: PC-3 prostate cancer cell line; test: MTT assay, Taxol with or without SNVIPhyb; type: cell-based
Source text: as §1

[10] = test system: MCF-7 breast cancer cells; test: MTT assay, Taxol with or without SNVIPhyb; type: cell-based; settings: for IC50: Homo sapiens, MCF7
Source text: as §1

SMILES: CCc1c2c(nc3ccc(OC(=O)N4CCC(N5CCCCC5)CC4)cc13)-c1cc3c(c(=O)n1C2)COC(=O)[C@]3(O)CC [CPT-11]
- effect of the combination with SNH [1]: enhancing effect
- reduction of the IC50 of the chemotherapeutic agent by SNH ([2]; 5 μM SNH, NCI-H727): at least two-fold
- nature of the combined effect with SNH [2]: synergistic
- effect of the combination with the VIP antagonist [3]: synergistic
- enhancement of the antiproliferative activity of the chemotherapeutic agent by the lipophilic VIP antagonist [3]: enhance the antiproliferative activity
- effect of the combination with SNH (HT-29 human colon cancer): enhancing effect

SMILES: CC(=O)O[C@H]1C(=O)[C@@]2(C)[C@H]([C@H](OC(=O)c3ccccc3)[C@]3(O)C[C@H](OC(=O)[C@H](O)[C@@H](NC(=O)c4ccccc4)c4ccccc4)C(C)=C1C3(C)C)[C@]1(OC(C)=O)CO[C@@H]1C[C@@H]2O [Taxol]
- tumor volume (height×width×depth) (MDA-MB231 xenografts): 613 mm^3
- interaction with SNVIPhyb at inhibiting cancer cell proliferation ([4]; combination with SNVIPhyb): synergistic
- increase of potency in the presence of SNVIPhyb ([4]; epithelial cancer cells): 3-6 fold
- IC50 ([4]; read-out: IC50 values over the cell lines): 8 to 15 µg/mL (≈ 9.37 to 17.6 µM)
- IC50 ([4]; read-out: IC50 values over the cell lines in the presence of 10 μM SNVIPhyb): 2.5 to 5 µg/mL
- nature of the combined effect with SNH [2]: very effective; also recorded: synergistic
- reduction of the IC50 of Taxol by SNH [5]: about 6 fold
- IC50 ([6]; NCI-H1299, 10 μM SNVIPhyb, read-out: IC50 with 10 μM SNVIPhyb): 3 µg/mL (≈ 3.51 µM)
- IC50 ([6]; NCI-H1299, Taxol alone, read-out: IC50): 8 µg/mL (≈ 9.37 µM)
- IC50 ([7]; NCI-H157, 10 μM SNVIPhyb, read-out: IC50 with 10 μM SNVIPhyb): 2.5 µg/mL (≈ 2.93 µM)
- IC50 ([7]; NCI-H157, Taxol alone, read-out: IC50): 10 µg/mL (≈ 11.7 µM)
- IC50 ([8]; 10 μM SNVIPhyb, read-out: IC50 with 10 μM SNVIPhyb): 3 µg/mL (≈ 3.51 µM)
- IC50 ([8]; Taxol alone, read-out: IC50): 10 µg/mL (≈ 11.7 µM)
- IC50 ([9]; PC-3, 10 μM SNVIPhyb, read-out: IC50 with 10 μM SNVIPhyb): 5 µg/mL (≈ 5.86 µM)
- IC50 ([9]; PC-3, Taxol alone, read-out: IC50): 15 µg/mL (≈ 17.6 µM)
- IC50 ([10]; MCF-7, 3 μM SNVIPhyb, read-out: IC50 in the presence of 3 μM SNVIPhyb): 24 µg/mL
- IC50 ([10]; MCF-7, 10 μM SNVIPhyb, read-out: IC50 with 10 μM SNVIPhyb): 2 µg/mL (≈ 2.34 µM)
- IC50 ([10]; MCF-7, Taxol alone, read-out: IC50): 12 µg/mL (≈ 14.1 µM)
- increase of cytotoxicity by SNVIPhyb ([10]; MCF-7, combination with SNVIPhyb): increases the cytotoxicity
- effect on MCF-7 cells ([10]; Taxol at 1 μg/mL): little effect
